Consider 19 molecules from patent US12344623B2, “Thiazolopyridine derivatives as adenosine receptor antagonists” (Merck Patent GmbH, priority 2019, dated 2025).

Structures are written as SMILES. Where two headings read alike, the source gives them in different places.

Format in all cases: cell-based
For one experiment, the target named is T1, human A2B receptor (Homo sapiens, UniProt P29275).
T1 construct: expressed in transfected cells; host or cells: HEK293
T1 sequence (P29275 1-332): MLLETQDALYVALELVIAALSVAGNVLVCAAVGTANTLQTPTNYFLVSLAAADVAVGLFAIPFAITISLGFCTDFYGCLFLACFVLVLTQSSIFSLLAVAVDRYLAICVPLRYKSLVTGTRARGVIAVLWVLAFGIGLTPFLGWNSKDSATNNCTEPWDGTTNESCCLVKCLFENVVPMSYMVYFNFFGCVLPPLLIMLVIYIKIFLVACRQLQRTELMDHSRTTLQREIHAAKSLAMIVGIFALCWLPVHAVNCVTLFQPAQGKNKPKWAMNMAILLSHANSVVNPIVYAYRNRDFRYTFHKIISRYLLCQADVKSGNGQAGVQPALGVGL
The experiment in a line: Functional A2B receptor activity, recombinant HEK293 cells, cAMP (HTRF), agonist NECA. As to the method:
(§1) The functional activities of human A2A, A2B, A1 and A3 receptors were determined by quantification of cAMP, being the second messenger for adenosine receptors.
(§2) Cells were seeded into 384-well plates, forskolin, test compounds and agonists (CPA for A1- and IB-MECA for A3-receptor) were added. After 30 min incubation, HTRF reagents (cAMP dynamic 2, Cis Bio) were added and the cellular cAMP levels were determined using the ENVISION (Perkin Elmer) plate reader. Obtained raw data were normalized against the inhibitor control and the neural control (DMSO) and the normalized data were fitted using GeneData software.

Another experiment deals with T2, human A1 receptor (Homo sapiens, UniProt P30542).
T2 construct: expressed in transfected cells; host or cells: CHO
T2 sequence (P30542 1-326): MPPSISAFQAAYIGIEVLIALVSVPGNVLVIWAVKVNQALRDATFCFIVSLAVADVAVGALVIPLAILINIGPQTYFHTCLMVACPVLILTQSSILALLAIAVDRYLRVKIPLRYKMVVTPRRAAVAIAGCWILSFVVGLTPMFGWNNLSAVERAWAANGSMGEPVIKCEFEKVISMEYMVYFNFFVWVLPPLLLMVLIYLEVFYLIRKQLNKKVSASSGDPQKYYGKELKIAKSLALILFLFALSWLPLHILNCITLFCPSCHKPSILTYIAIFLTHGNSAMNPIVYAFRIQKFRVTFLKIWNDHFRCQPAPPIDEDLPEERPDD
Kind of experiment: Functional A1 receptor activity, recombinant CHO cells, cAMP (HTRF), forskolin, agonist CPA. The method, then:
as §1
(§3) For human A1 and A3 receptors, recombinant CHO cells, expressing either A1 or A3-receptor, were used. As both receptors couple to Gi proteins, the assay protocol was adapted:
as §2
A general note: TR-FRET usually uses a lanthanide donor and a delayed reading to cut background.

Another experiment addresses T3, human A3 receptor (Homo sapiens, UniProt P0DMS8).
T3 construct: expressed in transfected cells; host or cells: CHO
T3 sequence (P0DMS8 1-318): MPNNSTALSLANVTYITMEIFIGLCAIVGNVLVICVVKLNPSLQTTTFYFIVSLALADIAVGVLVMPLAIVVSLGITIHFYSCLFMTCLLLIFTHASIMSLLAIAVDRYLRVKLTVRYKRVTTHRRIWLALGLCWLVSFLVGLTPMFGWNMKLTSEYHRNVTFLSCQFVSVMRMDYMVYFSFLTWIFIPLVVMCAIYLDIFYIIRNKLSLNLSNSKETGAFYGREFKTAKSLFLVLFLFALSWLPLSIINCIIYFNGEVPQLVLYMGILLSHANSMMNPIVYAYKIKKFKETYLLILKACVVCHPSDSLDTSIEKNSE
Kind of experiment: Functional A3 receptor activity, recombinant CHO cells, cAMP (HTRF), forskolin, agonist IB-MECA. As to the method:
as §1, §3, §2

The next experiment deals with human A2A receptor (Homo sapiens, UniProt P29274). Kind of experiment: Functional A2A receptor activity, recombinant HEK293 cells, cAMP (HTRF), agonist NECA. Details: expressed in transfected cells; host or cells: HEK293. The method, then: as §1, §2
Sequence of human A2A receptor (P29274 whole entry): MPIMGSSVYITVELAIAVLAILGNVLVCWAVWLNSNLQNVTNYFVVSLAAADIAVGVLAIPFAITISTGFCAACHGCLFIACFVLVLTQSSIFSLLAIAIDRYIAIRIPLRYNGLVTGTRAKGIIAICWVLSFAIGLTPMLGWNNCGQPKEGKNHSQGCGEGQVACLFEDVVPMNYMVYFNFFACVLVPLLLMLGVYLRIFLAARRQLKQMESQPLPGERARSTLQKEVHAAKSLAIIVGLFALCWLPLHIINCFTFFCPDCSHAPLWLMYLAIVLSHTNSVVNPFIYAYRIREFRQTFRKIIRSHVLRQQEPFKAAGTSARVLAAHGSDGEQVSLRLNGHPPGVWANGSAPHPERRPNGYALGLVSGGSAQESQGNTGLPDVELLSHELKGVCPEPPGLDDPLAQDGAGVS
Where [1] appears, read: read-out: Functional A2B receptor activity, HEK293, cAMP, IC50.
[2] abbreviates: recombinant CHO cells, forskolin, agonist CPA, read-out: Functional A1 receptor activity, CHO, cAMP, IC50.
The mark [3] stands for this setting: recombinant CHO cells, forskolin, agonist IB-MECA, read-out: Functional A3 receptor activity, CHO, cAMP, IC50.
[4] abbreviates: read-out: Functional A2A receptor activity, HEK293, cAMP, IC50.
Setting [5] is: recombinant CHO cells, forskolin, agonist CPA, cAMP, read-out: Functional A1 receptor activity, CHO, cAMP, IC50.
Setting [6] is: recombinant CHO cells, forskolin, agonist IB-MECA, cAMP, read-out: Functional A3 receptor activity, CHO, cAMP, IC50.

As for `COc1ncc(C2=CCOC2)c2sc(NC(=O)N3CCC4(CCOCC4)C3)nc12` [Compound 44, N-[7-(2,5-dihydrofuran-3-yl)-4-methoxy-[1,3]thiazolo[4,5-c]pyridin-2-yl]-8-oxa-2-azaspiro[4.5]decane-2-carboxamide], the IC50 is less than 100 nM at human A2B receptor (setting [1]), greater than 1000 nM at human A1 receptor (setting [2]), greater than 1000 nM on human A3 receptor (setting [3]) and less than 100 nM on human A2A receptor (setting [4]).
As to `COc1ncc(C2=CCOCC2)c2sc(NC(=O)c3c[nH]c(-c4cccnc4)n3)nc12` [Compound 140, 2-Pyridin-3-yl-1H-imidazole-4-carboxylic acid [7-(3,6-dihydro-2H-pyran-4-yl)-4-methoxy-thiazolo[4,5-c]pyridin-2-yl]-amide], the IC50 at human A2B receptor (setting [1]) was less than 100 nM; on human A1 receptor (setting [2]) it was less than 1000 nM; on human A3 receptor (setting [3]), greater than 1000 nM; on human A2A receptor (setting [4]), less than 10 nM.
Consider `O=C(Nc1nc2c(OC(F)F)ncc(-c3ccccc3)c2s1)N1CCC2(CCOCC2)C1` [Compound 80, 8-Oxa-2-aza-spiro[4.5]decane-2-carboxylic acid (4-difluoromethoxy-7-phenyl-thiazolo[4,5-c]pyridin-2-yl)-amide], for which the half-inhibitory concentration (IC50) was less than 100 nM on human A2B receptor (setting [1]), greater than 1000 nM on human A1 receptor (setting [2]), greater than 1000 nM on human A3 receptor (setting [3]) and less than 10 nM on human A2A receptor (setting [4]).
`COc1ncc(I)c2sc(NC(=O)N3CCC4(CCOCC4)C3)nc12` [Compound 171, 8-Oxa-2-aza-spiro[4.5]decane-2-carboxylic acid (7-iodo-4-methoxy-thiazolo[4,5-c]pyridin-2-yl)-amide]: the IC50 on human A2B receptor (setting [1]) was less than 100 nM; at human A1 receptor (setting [2]), greater than 1000 nM; on human A3 receptor (setting [3]) it was greater than 1000 nM; on human A2A receptor (setting [4]) it was less than 100 nM.
`COc1ncc(C2=CCOCC2)c2sc(NC(=O)Nc3ccc(NC(=O)CN(C)C)cc3)nc12` [Compound 90, N-[4-({[7-(3,6-dihydro-2H-pyran-4-yl)-4-methoxy-[1,3]thiazolo[4,5-c]pyridin-2-yl]carbamoyl}amino)phenyl]-2-(dimethylamino)acetamide]: the IC50 at human A2B receptor (setting [1]) was less than 10 nM; at human A1 receptor (setting [2]), greater than 1000 nM; at human A3 receptor (setting [3]) it was greater than 1000 nM; at human A2A receptor (setting [4]), less than 10 nM.
Regarding `COc1ncc(-c2ccccc2)c2sc(NC(=O)c3ccc(C(=O)O)cc3)nc12` [Compound 109, 4-({4-methoxy-7-phenyl-[1,3]thiazolo[4,5-c]pyridin-2-yl}carbamoyl)benzoic acid], the IC50 is less than 10 nM on human A2B receptor (setting [1]), greater than 1000 nM on human A1 receptor (setting [2]), greater than 1000 nM on human A3 receptor (setting [3]) and less than 10 nM on human A2A receptor (setting [4]).
For the molecule `COc1ccc(-c2ccccc2)c2sc(NC(=O)NCCN3CCCCC3)nc12` [drawing 187, reference compound], the IC50 is greater than 1000 nM at human A2B receptor (setting [1]), greater than 1000 nM on human A1 receptor (setting [5]), greater than 1000 nM on human A3 receptor (setting [6]) and less than 100 nM on human A2A receptor (setting [4]).
As to `COc1ncc(C2=CCOC2)c2sc(NC(=O)N3CCC4(CCCOC4)C3)nc12` (stereo not shown) [Compound 45, N-[7-(2,5-dihydrofuran-3-yl)-4-methoxy-[1,3]thiazolo[4,5-c]pyridin-2-yl]-7-oxa-2-azaspiro[4.5]decane-2-carboxamide], the IC50 on human A2B receptor (setting [1]) is less than 100 nM; on human A1 receptor (setting [2]), greater than 1000 nM; on human A3 receptor (setting [3]), greater than 1000 nM; on human A2A receptor (setting [4]) it was less than 100 nM.
Consider `COc1cnc(N2CCOCC2)c2sc(NC(=O)N3CCOCC3)nc12` [drawing 193, reference compound], for which the IC50 on human A2B receptor (setting [1]) is less than 1000 nM; on human A1 receptor (setting [5]), greater than 1000 nM; on human A3 receptor (setting [6]), less than 1000 nM; at human A2A receptor (setting [4]), less than 10 nM.
As for `COc1ncc(-c2cc(O)ccc2F)c2sc(NC(=O)N3CCC4(CCOCC4)C3)nc12` [Compound 150, 8-Oxa-2-aza-spiro[4.5]decane-2-carboxylic acid [7-(2-fluoro-5-hydroxy-phenyl)-4-methoxy-thiazolo[4,5-c]pyridin-2-yl]-amide], the IC50 on human A2B receptor (setting [1]) was less than 100 nM; at human A1 receptor (setting [2]), greater than 1000 nM; on human A3 receptor (setting [3]) it was greater than 1000 nM; at human A2A receptor (setting [4]), less than 10 nM.
Turning to `COc1ccc(C2CCOCC2)c2sc(NC(=O)N3CCOCC3)nc12` [reference compound], the IC50 is less than 1000 nM at human A2B receptor (setting [1]), less than 1000 nM on human A1 receptor (setting [5]), greater than 1000 nM at human A3 receptor (setting [6]) and less than 10 nM at human A2A receptor (setting [4]).
As for `COc1ncc(-c2ccc(C)o2)c2sc(NC(=O)N3CCC4(CCOCC4)C3)nc12` [Compound 114, 8-Oxa-2-aza-spiro[4.5]decane-2-carboxylic acid [4-methoxy-7-(5-methyl-furan-2-yl)-thiazolo[4,5-c]pyridin-2-yl]-amide], the IC50 on human A2B receptor (setting [1]) was less than 100 nM; on human A1 receptor (setting [2]), less than 1000 nM; at human A3 receptor (setting [3]), greater than 1000 nM; on human A2A receptor (setting [4]), less than 10 nM.
Take `COc1ccc(C2CCOCC2)c2sc(NC(=O)N3CCC4(CC3)OCCO4)nc12` [reference compound]: the IC50 on human A2B receptor was less than 1000 nM; at human A1 receptor, greater than 1000 nM; on human A3 receptor, greater than 1000 nM; at human A2A receptor, less than 10 nM.
With `COc1ncc(C2=CCOCC2)c2sc(NC(=O)c3cnn(-c4ccccc4)c3)nc12` [Compound 156, 1-Phenyl-1H-pyrazole-4-carboxylic acid [7-(3,6-dihydro-2H-pyran-4-yl)-4-methoxy-thiazolo[4,5-c]pyridin-2-yl]-amide], the IC50 was less than 10 nM on human A2B receptor (setting [1]), less than 1000 nM at human A1 receptor (setting [2]), greater than 1000 nM at human A3 receptor (setting [3]) and less than 10 nM on human A2A receptor (setting [4]).
`COc1ncc(C2COCCO2)c2sc(NC(=O)N3CCC4(CCOCC4)C3)nc12` (stereo not shown) [Compound 73, 8-Oxa-2-aza-spiro[4.5]decane-2-carboxylic acid (7-[1,4]dioxan-2-yl-4-methoxy-thiazolo[4,5-c]pyridin-2-yl)-amide]: the IC50 is less than 100 nM at human A2B receptor (setting [1]), greater than 1000 nM at human A1 receptor (setting [2]), greater than 1000 nM at human A3 receptor (setting [3]) and less than 10 nM on human A2A receptor (setting [4]).
`COc1ncc(C2=CCOCC2)c2sc(NC(=O)c3cnc4ccccn34)nc12` [Compound 135, Imidazo[1,2-a]pyridine-3-carboxylic acid [7-(3,6-dihydro-2H-pyran-4-yl)-4-methoxy-thiazolo[4,5-c]pyridin-2-yl]-amide]: the IC50 at human A2B receptor (setting [1]) is less than 10 nM; at human A1 receptor (setting [2]), less than 1000 nM; at human A3 receptor (setting [3]), less than 1000 nM; on human A2A receptor (setting [4]) it was less than 10 nM.
Take `COc1ccc(N2CCOCC2)c2sc(NC(=O)N3CCOCC3)nc12` [reference compound]: the IC50 was less than 1000 nM at human A2B receptor (setting [1]), greater than 1000 nM at human A1 receptor (setting [5]), greater than 1000 nM at human A3 receptor (setting [6]) and less than 10 nM on human A2A receptor (setting [4]).
With `COc1nc(F)c(-c2ccccc2)c2sc(NC(=O)C34CC(C(=O)N(C)CCO)(C3)C4)nc12` [Compound 101, Bicyclo[1.1.1]pentane-1,3-dicarboxylic acid (6-fluoro-4-methoxy-7-phenyl-thiazolo[4,5-c]pyridin-2-yl)-amide (2-hydroxy-ethyl)-methyl-amide], the half-maximal inhibitory concentration (IC50) on human A2B receptor (setting [1]) was less than 100 nM; on human A1 receptor (setting [2]) it was greater than 1000 nM; at human A3 receptor (setting [3]), greater than 1000 nM; at human A2A receptor (setting [4]) it was less than 10 nM.
`COc1ncc([C@@H]2COCCO2)c2sc(NC(=O)c3ccc(C(=O)O)cc3)nc12` [Compound 169, N-((R)-7-[1,4]Dioxan-2-yl-4-methoxy-thiazolo[4,5-c]pyridin-2-yl)-terephthalamic acid]: the IC50 at human A2B receptor (setting [1]) was less than 100 nM; on human A1 receptor (setting [2]), greater than 1000 nM; at human A3 receptor (setting [3]), greater than 1000 nM; on human A2A receptor (setting [4]), less than 10 nM.

Usually IC50 stands for the concentration that inhibits the measured activity by half.
